Measured values from publication PMC8362065, “Easily Available, Amphiphilic Diiron Cyclopentadienyl Complexes Exhibit in Vitro Anticancer Activity in 2D and 3D Human Cancer Cells through Redox Modulation Triggered by CO Release” (Chemistry (Weinheim an Der Bergstrasse, Germany), 2021).

How the values were obtained:
[1] = test system: PSN‐1 pancreatic cancer cells; assay: Intracellular CO release, fluorescent CO probe; type: cell-based, human; conditions: PSN‐1 cells, 20 μM, 30 min, fluorescent probe (Figure 4B)
Procedure: (§1) Figure 4 Intracellular detection of iron and carbon monoxide. A) Cellular uptake in PSN‐1 and HEK293 cells; cells were incubated with 50 μM of complexes for 24 h, and the cellular iron content was detected by GFAAS analysis. B) Intracellular CO levels were determined by using a fluorescent probe (BioTracker Carbon Monoxide Probe 1 Live Cell Dye®, Merck, Germany) after 30 min of treatment of PSN‐1 or HEK293 cells with 20 μM [2C]CF3SO3 and [2D]CF3SO3, or 20 μM CORM‐401 as positive control. ** P<0.01, * P<0.05.
(§2) Additional studies were conducted in order to elucidate the mode of action underlying the cell killing effect of the newly synthesized diiron complexes in cancer cells. In particular, based on the evidence of their tendency to slowly release CO in aqueous media (see section on solubility, partition coefficient, stability in aqueous media), we evaluated the ability of the most performant complexes [2C]CF3SO3 and [2D]CF3SO3 to release carbon monoxide inside PSN‐1 pancreatic cancer cells and HEK293 noncancer cells. A fluorometric test was conducted over a short time interval (30 min) by means of a CO sensing dye (Figure 4B). […] The relatively fast release of carbon monoxide within the cell might be associated to the presence of a consistent amount and variety of biological substrates, which can quicken the formation of CO substitution diiron products. As a matter of fact, it is well documented that [2E–F]CF3SO3 are susceptible to replacement of one terminal CO ligand by suitable C‐, P‐, S‐ and N‐donors to give adducts of general formula [Fe2Cp2(CO)(L)(μ‐CO){μ‐CNR(Me)}]^0/+.[[15b], [16a], [20]] Although the nature of L in the cell context is far from being clarified, it is reasonable to speculate that CO release is readily operative via such substitution pathway. However, an acceleration of the route leading to the extensive decomposition of the diiron scaffold (elimination of three COs per complex), as observed in aqueous media, might also contribute.
(§3) Intracellular CO release. PSN‐1 cell (1×10^4) were seeded in 96‐well plates. After 24 h, cells were treated with 20 μM of tested complexes or CORM‐401 (Merck) for […] at 37 °C and followed by 30 min incubation with a fluorescent probe BioTracker Carbon Monoxide Probe 1 Live Cell Dye® (Merck). The intracellular fluorescence, indicative of CO accumulation in cells, was quantified using a VICTOR X3 (PerkinElmer) plate reader.

[2] = test system: HEK293 noncancer cells; assay: Intracellular CO release, fluorescent CO probe; type: cell-based, human; conditions: 20 μM, 30 min, fluorescent probe (Figure 4B)
Procedure: as §1, §2, §3

[3] = test system: human pancreatic PSN‐1 cancer cells; assay: Cellular uptake, iron by GF-AAS; type: cell-based; conditions: PSN‐1 cells, 50 μM, 24 h, GF-AAS (μg Fe per 10^6 cells, Figure 4A)
Procedure: In order to correlate the cytotoxic potential to the ability of the newly developed complexes to enter cells, we performed uptake experiments. […] Thus, cells were treated for 24 h with equimolar concentrations (50 μM) of the tested compounds. The cellular iron levels were quantified by means of GF‐AAS analysis, and the results, expressed as μg Fe per 10^6 cells, are shown in Figure 4A. […]
as §1
Cellular uptake. […] Cell monolayers were washed twice with cold PBS, harvested and counted. […] After cooling, each mineralized sample was analysed for iron using a Varian AA Duo graphite furnace atomic absorption spectrometer (Varian) at the wavelength of 248.3 nm. […]

[4] = test system: PSN‐1 cells; assay: ROS production, CM-H2DCFDA fluorescence; type: cell-based, human; conditions: time-dependent (Figure 5A)
Source text: Iron is a redox active metal that can generate ROS in cells via the Fenton reaction, thus inducing cellular damage and ultimately leading to cell death.[40] […] Based on this premises, we evaluated the effects induced by the diiron complexes on the mitochondria activity and the cellular redox environment. More precisely, we investigated the ROS production and the alteration of the mitochondrial membrane potential. […] The time‐dependent ROS basal production is probably associated to more than one phenomenon. First of all, the progressive disruption of the diiron structure leads to the extrusion of the Fe^I centres, which are expected to subsequently convert into Fe^III (in fact, slow precipitation of iron(III) oxides has been recognized from water solution, see above). […]
Figure 5 Effects induced by compounds [2C]CF3SO3 and [2D]CF3SO3 at the mitochondrial level. […] The fluorescence of DCF was measured at λ ex=485 nm and λ em=527 nm. […] Fluorescence was estimated at λ ex=490 nm and λ em=590 nm. […]
ROS production. The production of ROS was measured in PSN‐1 cells (10^4 per well) grown for 24 h in a 96‐well plate in RPMI medium without phenol red (Merck). […] Fluorescence increase was estimated by using λ ex=485 nm and λ em=527 nm in a VICTOR X3 (PerkinElmer) plate reader. […]

[Fe2Cp2(CO)2(μ‐CO){μ‐CNMe(4‐C6H4OMe)}]CF3SO3 [[2D]CF3SO3]
Intracellular CO levels [1]: effective in significantly release CO
Intracellular CO levels [2]: lower levels of CO were detected
Cellular iron accumulation (uptake) [3]: able to induce cellular iron accumulation
Cellular ROS production [4]: substantial increase in cellular ROS production

[Fe2Cp2(CO)2(μ‐CO){μ‐CNMe(C6H11)}]X [[2C]CF3SO3]
Intracellular CO levels [1]: effective in significantly release CO
Intracellular CO levels [2]: lower levels of CO were detected
Cellular ROS production [4]: substantial increase in cellular ROS production
